From patent US20140051918A1, “LAPAROSCOPIC GASTRIC BAND WITH ACTIVE AGENTS” (Allergan, Inc., priority 2009, published 2014)
Ends that are not written are not given here.

B1: Cholecystokinin (peptide, UniProt P06307 21-115, looked up)
Cholecystokinin: QPVPPADPAGSGLQRAEEAPRRQLRVSQRTDGESRAHLGALLARYIQQARKAPSGRMSIVKNLQNLDPSHRISDRDYMGWMDFGRRSAEEYEYPS
modifications: Cholecystokinin
notes: hormone that suppresses appetite when administered with or without gastric distension
B2: Ciliary neuro-trophic factor (protein, UniProt P26441 1-200, looked up)
Ciliary neurotrophic factor: MAFTEHSPLTPHRRDLCSRSIWLARKIRSDLTALTESYVKHQGLNKNINLDSADGMPVASTDQWSELTEAERLQENLQAYRTFHVLLARLLEDQQVHFTPTEGDFHQAIHTLLLQVAAFAYQIEELMILLEYKIPRNEADGMPINVGDGGLFEKKLWGLKVLQELSQWTVRSIHDLRFISSHQTGIPARGSHYIANNKKM

Test: Patient examples: laparoscopic gastric band releasing an active agent, with weight loss, appetite and blood sugar control reported
Assay type: in vivo, human
Conditions: 322 pounds; for weight lost by the patient: 5'11", within 12 months; for weight lost by the patient / appetite as reported by the patient: gastric band containing the agent, released to a goal plasma concentration over 3-24 months
From the text: (§1) A patient, having a body weight of 322 pounds and a height of 5′11″, complains to their physician that they have tried unsuccessfully to lose weight over the past 15 years and is concerned about the effect their excess weight may have on their health. […] A reservoir containing glucagon like peptide 1 (GLP-1), according to any of the embodiments of this application may also be utilized.
as §1, with “oxyntomodulin (OXM),” for “glucagon like peptide 1 (GLP-1),”, “utilized. An injection, liquid, pill, spray, inhalant, patch, or oral substance such as a gum containing oxyntomodulin (OXM) may also be used.” for “utilized.”
A patient, having a body weight of 322 pounds and a height of 5′11″, complains to their physician that they have tried unsuccessfully to lose weight over the past 15 years and is concerned about the effect their excess weight may have on their health.
as §1, with “Pancreatic Peptide (PP),” for “glucagon like peptide 1 (GLP-1),”, “utilized. An injection, liquid, pill, spray, inhalant, patch, or oral substance such as a gum containing Pancreatic Peptide (PP) may also be used.” for “utilized.”
as §1, with “Insulin,” for “glucagon like peptide 1 (GLP-1),”, “utilized. An injection, liquid, pill, spray, inhalant, patch, or oral substance such as a gum containing Insulin may also be used.” for “utilized.”
as §1, with “Leptin,” for “glucagon like peptide 1 (GLP-1),”, “utilized. An injection, liquid, pill, spray, inhalant, patch, or oral substance such as a gum containing Leptin may also be used. […] In the case of a female patient the goal plasma concentrations would be [10-20 ng/mL]p.” for “utilized.”
as §1, with “Amylin,” for “glucagon like peptide 1 (GLP-1),”, “utilized. An injection, liquid, pill, spray, inhalant, patch, or oral substance such as a gum containing Amylin may also be used.” for “utilized.”
as §1, with “Cholecystokinin (CCK),” for “glucagon like peptide 1 (GLP-1),”, “utilized. An injection, liquid, pill, spray, inhalant, patch, or oral substance such as a gum containing Cholecystokinin (CCK) may also be used.” for “utilized.”

Row | Molecule | weight lost by the patient [pounds] | appetite as reported by the patient | blood sugar control as reported by the patient (gastric band containing Insulin, released to plasma concentrations of 5-30 μU/mL over 3-24 months)
1 | Amylin (KCNTATCATQRLANFLVHSSNNFGAILSSTNVGSNTY; not fully specified (C-terminus, bridges); cysteine pairing not given here; UniProt P10997 34-70, looked up) [satiety inducing peptide hormone] | 58 | marked suppression of appetite | –
2 | Cocaine-Amphetamine Regulated Transcript [CART] | 58 | marked suppression of appetite | –
3 | Insulin | – | – | euglycemic effects, or better control by their body of blood sugars
4 | Leptin | 58 | marked suppression of appetite | –
5 | PYY: satiety inducing peptide hormone [Peptide Y-Y] | 58 | marked suppression of appetite | –
6 | Pancreatic Peptide (APLEPVYPGDNATPEQMAQYAADLRRYINMLTRPRY; ends and bridges not checked; UniProt P01298 30-65, looked up) [PP, satiety inducing peptide hormone] | 58 | marked suppression of appetite | –
7 | glucagon like peptide 1 (HAEGTFTSDVSSYLEGQAAKEFIAWLVKGR; ends and bridges not checked; UniProt P01275 98-127, looked up) [GLP-1, satiety inducing peptide hormone] | 58 | marked suppression of appetite | –
8 | oxyntomodulin [OXM] | 58 | marked suppression of appetite | –
9 | B1 | 58 | marked suppression of appetite | –
10 | B2 | 58 | marked suppression of appetite | –
